Source: paper PMC8151655, “Some Dietary Phenolic Compounds Can Activate Thyroid Peroxidase and Inhibit Lipoxygenase-Preliminary Study in the Model Systems” (International Journal of Molecular Sciences, 2021)

B1: thyroid peroxidase (TPO) (Sus scrofa) (protein)
chain: CAGAFFASILRRKDLLGGDTEASGVAGLVEASRLLVDEAIHTTMRRNLRKRGIFSPSQLLSFSKLPEPTSRTASRAAEIMETAVQEVKRRVCRRRDTDQLPTDVLSEELLSTIANLSGCLPHMLPPSCPHTCLANKYRLITGACNNRDHPRWGASNTALARWLPPAYEDGVTEPRGWNPHFLYNGLPLPPVREVTRQVIHVSNEAVTEDGQYSDLLMAWGQYIDHDIAFTPQSTSKAAFAGGADCQLTCENRSPCFPIQLPTNASGAAGATCLPFYRSSAACGSGRQGALVGNLSWAAPRQQMNGLTSFLDASTVYGSSPAQEQRLRNWTSAEGLLRVNTRHRDAGRAFLPFAPPPAPPACAPEPGTPAARAPCFLAGDSRASEVPGLTALHTLWLREHNRLAAAFKALNAHWSADTVYQEARKVVGALHQIVTLRDYVPKILGAEAFGQHVGPYQGYDPAVDPTVSNVFSTAAFRFGHATIHPLVRRLDARFQEHPGSHLPLRAAFFQPWRLLREGGVDPVLRGLLARPAKLQVQDQLMNEELTERLFVLSNSGTLDLASINLQRGRDHGLPGYNEWREFCGLSRLETWADLSAATANGRVADRILGLYQHPDNIDVWLGGLAESFLPGARTGPLFACIIGKQMRALRDGDRFWWENPGVFTEAQRRELSRHSMSRVICDNSGLSHVPLDAFRVGQWPQEFEPCASIQGMDLGAWREAPPSGDACGFPDPVEDGGFLLCEERGQRVLVFSCRHGFRLRGPAQITCTPRGWDSPPPLCKDINECEDETDPPCHASARCKNTKGGVLCECSDPLVLGEDGRTCVDAGRLPRASVVSIALGAVLVCGLAGLAWTVVCRWTHADARPLLPVGEGEGDGKSPSLPLPGCGNRRDVGAAPALEVEQDLSCGSRGLCE
notes: The frozen thyroid gland was minced with a fork; from tissue; host or cells: porcine thyroid gland (homogenate, centrifuged, salted out to 60%)

Legend:
thyroid peroxidase (TPO) = target: T1, thyroid peroxidase (TPO) (Sus scrofa, UniProt P09933); assay: TPO assay (guaiacol oxidation, activation kinetics); type: biochemical, Porcine; settings: n = 9, read-out: AC50 (concentration resulting in 50% activation)
T1 construct: The frozen thyroid gland was minced with a fork; from tissue; host or cells: porcine thyroid gland (homogenate, centrifuged, salted out to 60%)
T1 sequence (P09933 15-926): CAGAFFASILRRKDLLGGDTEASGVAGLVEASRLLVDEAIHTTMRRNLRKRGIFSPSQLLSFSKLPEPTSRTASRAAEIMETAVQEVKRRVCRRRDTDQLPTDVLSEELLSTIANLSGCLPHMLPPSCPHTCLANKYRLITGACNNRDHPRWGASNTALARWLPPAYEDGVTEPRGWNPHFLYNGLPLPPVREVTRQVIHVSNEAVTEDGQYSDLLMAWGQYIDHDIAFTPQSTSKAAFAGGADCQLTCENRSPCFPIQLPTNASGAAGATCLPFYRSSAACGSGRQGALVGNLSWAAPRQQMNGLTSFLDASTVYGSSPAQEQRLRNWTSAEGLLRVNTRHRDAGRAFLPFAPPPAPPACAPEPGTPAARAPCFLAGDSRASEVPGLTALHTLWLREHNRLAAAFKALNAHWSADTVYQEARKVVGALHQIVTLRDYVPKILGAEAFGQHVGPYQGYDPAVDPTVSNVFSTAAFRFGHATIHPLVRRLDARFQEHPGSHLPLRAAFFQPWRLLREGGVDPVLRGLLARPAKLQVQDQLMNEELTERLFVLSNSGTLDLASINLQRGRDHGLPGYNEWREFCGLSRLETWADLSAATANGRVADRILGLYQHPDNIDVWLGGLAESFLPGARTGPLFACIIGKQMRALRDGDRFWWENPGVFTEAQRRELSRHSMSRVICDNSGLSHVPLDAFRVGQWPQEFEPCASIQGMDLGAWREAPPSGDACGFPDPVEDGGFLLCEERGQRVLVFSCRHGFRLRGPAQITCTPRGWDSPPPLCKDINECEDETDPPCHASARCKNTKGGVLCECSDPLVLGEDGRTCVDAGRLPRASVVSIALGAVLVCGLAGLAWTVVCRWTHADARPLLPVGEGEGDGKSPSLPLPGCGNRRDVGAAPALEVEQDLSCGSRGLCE
Experimental: (§1) The assay was prepared according to Jomaa et al., with some modifications. Porcine thyroid glands were purchased at a slaughterhouse (Lublin, Poland) and stored at −20 °C until used. The frozen thyroid gland was minced with a fork. The mince was suspended in a buffer containing 0.25 M sucrose, 2 mM tris–HCl, 100 mM KCl, 40 mM NaCl and 10 mM MgCl2 (pH 7.4) and homogenized using Philips homogenizer. The thyroid gland was centrifuged two times at 4000 RPM per 15 min at a temperature + 4 °C. The enzyme protein was then salted out to 60%. The supernatant was stored at − 20 °C until used.
(§2) The assay was used according to Jomaa et al., with some modification. The measurement was made using a plate spectrophotometer (BioTek, Model Epoch2TC, Winooski, VT, USA) in 96–well plates at a wavelength of 470 nm. Absorbance readings were recorded every minute for a total of 3 min at 37 °C. TPO activity is expressed as a change of absorption per minute. All measurements were performed in three replicates. The AC50 (activator concentration) values were calculated at fitted models as the concentration of the tested compound providing 50% of the activation based on a dose-dependent mode of action.

[1] = target: T2, soybean lipoxygenase type 1-B (LOX) (Glycine max, UniProt P08170); assay: Inhibition of lipoxygenase activity (LOXI) with linoleic acid as substrate; type: biochemical; settings: for Mode of Inhibition: Lineweaver-Burk, linoleic acid substrate
T2 construct: purchased Sigma-Aldrich Company (Poznan, Poland)
T2 sequence (P08170 1-839): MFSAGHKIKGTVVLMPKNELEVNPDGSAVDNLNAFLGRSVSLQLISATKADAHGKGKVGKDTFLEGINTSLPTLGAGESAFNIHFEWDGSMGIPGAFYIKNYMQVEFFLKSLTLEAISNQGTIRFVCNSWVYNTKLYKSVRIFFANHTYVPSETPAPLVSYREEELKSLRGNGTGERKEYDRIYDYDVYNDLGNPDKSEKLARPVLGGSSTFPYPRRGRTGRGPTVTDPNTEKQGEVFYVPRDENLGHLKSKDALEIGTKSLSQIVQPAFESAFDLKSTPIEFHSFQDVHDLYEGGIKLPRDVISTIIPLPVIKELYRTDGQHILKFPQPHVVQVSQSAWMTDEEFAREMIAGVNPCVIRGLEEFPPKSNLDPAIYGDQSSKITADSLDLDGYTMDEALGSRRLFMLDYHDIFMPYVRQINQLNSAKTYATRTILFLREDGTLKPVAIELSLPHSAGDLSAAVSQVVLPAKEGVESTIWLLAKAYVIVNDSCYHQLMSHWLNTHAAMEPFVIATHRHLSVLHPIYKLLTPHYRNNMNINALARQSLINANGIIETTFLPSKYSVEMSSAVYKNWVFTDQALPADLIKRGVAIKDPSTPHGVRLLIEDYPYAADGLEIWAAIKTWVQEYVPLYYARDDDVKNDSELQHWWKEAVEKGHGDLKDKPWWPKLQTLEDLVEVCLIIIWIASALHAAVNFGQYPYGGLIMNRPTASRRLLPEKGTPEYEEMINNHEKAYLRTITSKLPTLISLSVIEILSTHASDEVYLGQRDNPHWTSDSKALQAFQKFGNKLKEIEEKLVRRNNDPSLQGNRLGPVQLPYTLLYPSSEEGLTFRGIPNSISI
Experimental: Measurement was made at a wavelength of 234 nm. One unit of LOX activity was defined as an increase in absorbance of 0.001 per minute at 234 nm. All measurements were performed in four replicates.

[2] = ABTS radical scavenging assay; settings: 15 min incubation at room temperature, n = 9; read-out: IC50 ABTS radical scavenging ability
Experimental: ABTS radical scavenging activity was determined according to Re et al. with slight modifications using a microplate spectrophotometer (BioTek, Model Epoch2TC, Winooski, VT, USA) after 15 min of incubation at room temperature.

[3] = blood samples of rabbits; cited from earlier work
LOX [4] = settings: different concentration than in the presented study; cited from earlier work
[5] = set-up: method as in earlier work; settings: cited from earlier work
LOX [6] = system: LOX; set-up: method as in doi:10.3390/app9030568; settings: previous studies; cited from earlier work
[7] = FA perfused as a free pure compound in the rat intestine; cited from earlier work
[8] = set-up: method as in PMID 10730826; settings: humans, FA in its free form, for example from beer; cited from earlier work
[9] = substrate: COc1ccccc1O; assay: TPO assay (guaiacol oxidation, activation kinetics); type: biochemical, Porcine; settings: other: TPO substrate guaiacol, n = 9; pH 7.4
Experimental: as §1, §2

Row | Molecule | AC50 (thyroid peroxidase (TPO)) [µM] | IC50 [1] [µM] | Ki [1] [µM] | Mode of Inhibition [1] | IC50 [2] [µM] | Absolute bioavailability [3] [%] | LOX inhibition (LOX [4]) [%] | Oral bioavailability [5] | Mode of LOX inhibition (LOX [6]) | Bioavailability [7] | Urinary excretion [8] | Km ([1]; LOX substrate linoleic acid, read-out: Km without Inhibitor) [µM] | Km [9] [µM]
1 | COc1cc(C(=O)O)cc(OC)c1O [Syringic acid, syringic acid] | 690 ± 34 | 9 ± 0.4 | 5 ± 0.3 | uncompetitive | 220 ± 11 | 86.27 |  |  |  |  |  |  | 
2 | O=C(O)/C=C/c1ccccc1 [trans–cinnamic acid, trans-cinnamic acid] | 100 ± 5 | 9 ± 0.4 | 9 ± 0.4 | uncompetitive | 2120 ± 106 |  | 66.6 | low |  |  |  |  | 
3 | COc1cc(/C=C/C(=O)O)ccc1O [Ferulic acid, ferulic acid] | 390 ± 19 | 27 ± 1.3 | 8 ± 0.4 | uncompetitive | 410 ± 20 |  | 74.4 |  | competitive | about 50% | 19–98% |  | 
4 | CCCCC/C=C\C/C=C\CCCCCCCC(=O)O [Linoleic acid, reference compound] |  |  |  |  |  |  |  |  |  |  |  | 7 ± 0.3 | 
5 | B1 |  |  |  |  |  |  |  |  |  |  |  |  | 60 ± 3
